Results: patent US20260097133A1, “EPIGENETIC EDITING TOOL FOR TARGETING HEPATITIS B VIRUS GENE” (priority 2023, published 2026)

How the values were obtained:
Format in all cases: cell-based
Details in all cases: sgRNA in GFP-negative cell population, day 14 after transfection of EPIREG
[1] = test system: type D HBV surface antigen (HBsAg) reporter cell line; assay: sgRNA lentiviral library screening, HBsAg reporter cell line (NGS reads in GFP-negative cells)
Source text: (§1) In this example, the type D HBV X protein (HBx), core antigen (HBcAg), and surface antigen (HBsAg) reporter cell lines were used for library screening. First, a sgRNA cell library of type D HBV gene was constructed using a reporter cell line according to the method described in example 1. The sgRNA library was packaged into lentivirus to obtain a sgRNA lentiviral library (carrying red fluorescence), the reporter cell line was infected with the lentiviral library, and the red fluorescence was sorted to obtain the sgRNA cell library. Each cell in this sorted cell library integrated a single sgRNA in the library while the cell itself carried a reporter sequence (carrying green fluorescence). The EPIREG tool described in example 2 (the amino acid sequence of the tool was SEQ ID NO: 1194) (carrying blue fluorescence) was transfected and delivered into a cell library carrying both sgRNA and reporter sequences. Red/green/blue fluorescent triple-positive cells were sorted using a flow cytometer and cultured long-term. The EPIREG transfected into the cells could work together with the sgRNA to silence GFP in the reporter. On the day 14 after transfection, the GFP-negative cell population in the cell library was sorted, the genomic DNA of the negative cell population was extracted for NGS sequencing. The sgRNAs with higher sequencing reads in the negative cell population were compared using the untreated cell library as a control reference, so as to obtain the candidate sgRNAs that could play an editing role corresponding to each reporter, respectively (the schematic diagram of this screening scheme is shown in FIG. 6, and the analysis method is referenced to the literature DOI: 10.1186/s13059-014-0554-4). The functionally validated sgRNAs for each reporter cell line are summarized in the following table (arranged by the starting position of the target sequence of each sgRNA).

[2] = test system: type D HBV X protein (HBx) reporter cell line; assay: sgRNA lentiviral library screening, HBx reporter cell line (NGS reads in GFP-negative cells)
Source text: as §1

[3] = test system: type D HBV core antigen (HBcAg) reporter cell line; assay: sgRNA lentiviral library screening, HBcAg reporter cell line (NGS reads in GFP-negative cells)
Source text: as §1

Row | Substance | Log2 FC [1] | Log2 FC [2] | Log2 FC [3]
1 | 211 (guide AGTCCCAAGCGACCCCGAGA; listed as DNA, chemistry not fully specified) [compound 211] | 1.5263 | 4.6655 | 4.4175
2 | 641 (guide GATCGGCAGAGGAGCCGAAA; listed as DNA, chemistry not fully specified) [compound 641] | 1.58 | 7.351 | 5.5293
3 | 483 (guide CGCCCCGTGGTCGGTCGGAA; listed as DNA, chemistry not fully specified) [compound 483] | 2.4519 | 6.4685 | 4.8386
4 | 834 (guide GTCGGAACGGCAGACGGAGA; listed as DNA, chemistry not fully specified) [compound 834] | 1.2666 | 4.7704 | 2.7177
5 | 825 (guide GTCCCAAGCGACCCCGAGAA; listed as DNA, chemistry not fully specified) [compound 825] | 1.0352 | 5.2457 | 3.3064
6 | 774 (guide GGGGCGCACCTCTCTTTACG; listed as DNA, chemistry not fully specified) [compound 774] | 1.1527 | 3.0494 | –
7 | 668 (guide GCAGAGGTGAAAAAGTTGCA; listed as DNA, chemistry not fully specified) [compound 668] | 1.297 | – | 1.9744
8 | 810 (guide GTAAAGAGAGGTGCGCCCCG; listed as DNA, chemistry not fully specified) [compound 810] | 1.7059 | 5.1825 | 2.5258
9 | 150 (guide AGAGAGGTGCGCCCCGTGGT; listed as DNA, chemistry not fully specified) [compound 150] | 1.453 | 3.8671 | –
10 | 227 (guide ATAGAGTATTTGGTGTCTTT; listed as DNA, chemistry not fully specified) [compound 227] | 0.9275 | – | –
11 | 242 (guide ATCCTGCGGACGACCCTTCT; listed as DNA, chemistry not fully specified) [compound 242] | 0.8809 | – | –
12 | 998 (guide TCTTTGTACTAGGAGGCTGT; listed as DNA, chemistry not fully specified) [compound 998] | 2.1989 | – | 4.2906
13 | 829 (guide GTCCTCTTATGTAAGACCTT; listed as DNA, chemistry not fully specified) [compound 829] | 0.9029 | – | –
14 | 593 (guide GAATCCCAGAGGATTGCTGG; listed as DNA, chemistry not fully specified) [compound 593] | 0.9124 | – | –
15 | 598 (guide GACATGAACAAGAGATGATT; listed as DNA, chemistry not fully specified) [compound 598] | 1.4722 | – | 4.6761
16 | 88 (guide ACATCGTATCCATGGCTGCT; listed as DNA, chemistry not fully specified) [compound 88] | 1.2095 | 3.4448 | 3.4446
17 | 491 (guide CGGAACGGCAGACGGAGAAG; listed as DNA, chemistry not fully specified) [compound 491] | 2.6046 | 6.0674 | 4.5168
18 | 973 (guide TCGGAACGGCAGACGGAGAA; listed as DNA, chemistry not fully specified) [compound 973] | 1.056 | 6.3619 | 3.9552
19 | 601 (guide GACCAAGCCCCAGCCAGTGG; listed as DNA, chemistry not fully specified) [compound 601] | 1.3073 | 7.1876 | 4.6508

Row | Substance | Log2 FC [1] | Log2 FC [2] | Log2 FC [3]
20 | 1028 (guide TGCCGTTCCGACCGACCACG; listed as DNA, chemistry not fully specified) [compound 1028] | 0.8922 | – | 3.8548
21 | 792 (guide GGTCTGGAGCAAACATTATC; listed as DNA, chemistry not fully specified) [compound 792] | 1.5074 | 5.6925 | 2.103
22 | 145 (guide AGACTGGGAGGAGTTGGGGG; listed as DNA, chemistry not fully specified) [compound 145] | 1.8314 | – | 3.5473
23 | 1025 (guide TGCCCAAGGTCTTACATAAG; listed as DNA, chemistry not fully specified) [compound 1025] | 1.4524 | – | 2.0852
24 | 506 (guide CGTCCCGCGCAGGATCCAGT; listed as DNA, chemistry not fully specified) [compound 506] | 1.5863 | 5.3827 | 3.3238
25 | 669 (guide GCAGATGAGAAGGCACAGAC; listed as DNA, chemistry not fully specified) [compound 669] | 1.1259 | 4.1676 | 3.0945
26 | 112 (guide ACCTTTGGATAAAACCTAGC; listed as DNA, chemistry not fully specified) [compound 112] | 1.203 | – | –
27 | 215 (guide AGTCTTTGAAGTATGCCTCA; listed as DNA, chemistry not fully specified) [compound 215] | 1.3799 | – | 2.1589
28 | 161 (guide AGATTAAAGGTCTTTGTACT; listed as DNA, chemistry not fully specified) [compound 161] | 1.8238 | – | 2.5156
29 | 658 (guide GCAAATATACATCGTATCCA; listed as DNA, chemistry not fully specified) [compound 658] | 1.8084 | 4.7952 | 2.2171
30 | 27 (guide AACAAGAGATGATTAGGCAG; listed as DNA, chemistry not fully specified) [compound 27] | 1.3821 | – | –
31 | 410 (guide CCCGTTGCCCGGCAACGGCC; listed as DNA, chemistry not fully specified) [compound 410] | 1.9735 | – | –
32 | 467 (guide CGACCCTTCTCGGGGTCGCT; listed as DNA, chemistry not fully specified) [compound 467] | 1.8988 | 2.9245 | 2.0481
33 | 127 (guide ACTGGCTGGGGCTTGGTCAT; listed as DNA, chemistry not fully specified) [compound 127] | 1.3983 | 7.231 | 2.0792
34 | 985 (guide TCTGCCGTTCCGACCGACCA; listed as DNA, chemistry not fully specified) [compound 985] | 1.8695 | 6.0276 | 3.1824
35 | 1072 (guide TGTAGTATGCCCTGAGCCTG; listed as DNA, chemistry not fully specified) [compound 1072] | 1.1325 | – | –
36 | 1084 (guide TTAAAGGTCTTTGTACTAGG; listed as DNA, chemistry not fully specified) [compound 1084] | 1.0831 | – | –
37 | 62 (guide AATGTCAACGACCGACCTTG; listed as DNA, chemistry not fully specified) [compound 62] | 1.5364 | – | 2.2035
38 | 839 (guide GTCTTACATAAGAGGACTCT; listed as DNA, chemistry not fully specified) [compound 839] | 1.3376 | – | –
